The results in this text go back to publication PMC10962247 (Science translational medicine, 2024).

The target in this assay is T1, Glycogen synthase 1 (GYS1) (Homo sapiens, UniProt P13807).
T1 sequence (P13807 1-737): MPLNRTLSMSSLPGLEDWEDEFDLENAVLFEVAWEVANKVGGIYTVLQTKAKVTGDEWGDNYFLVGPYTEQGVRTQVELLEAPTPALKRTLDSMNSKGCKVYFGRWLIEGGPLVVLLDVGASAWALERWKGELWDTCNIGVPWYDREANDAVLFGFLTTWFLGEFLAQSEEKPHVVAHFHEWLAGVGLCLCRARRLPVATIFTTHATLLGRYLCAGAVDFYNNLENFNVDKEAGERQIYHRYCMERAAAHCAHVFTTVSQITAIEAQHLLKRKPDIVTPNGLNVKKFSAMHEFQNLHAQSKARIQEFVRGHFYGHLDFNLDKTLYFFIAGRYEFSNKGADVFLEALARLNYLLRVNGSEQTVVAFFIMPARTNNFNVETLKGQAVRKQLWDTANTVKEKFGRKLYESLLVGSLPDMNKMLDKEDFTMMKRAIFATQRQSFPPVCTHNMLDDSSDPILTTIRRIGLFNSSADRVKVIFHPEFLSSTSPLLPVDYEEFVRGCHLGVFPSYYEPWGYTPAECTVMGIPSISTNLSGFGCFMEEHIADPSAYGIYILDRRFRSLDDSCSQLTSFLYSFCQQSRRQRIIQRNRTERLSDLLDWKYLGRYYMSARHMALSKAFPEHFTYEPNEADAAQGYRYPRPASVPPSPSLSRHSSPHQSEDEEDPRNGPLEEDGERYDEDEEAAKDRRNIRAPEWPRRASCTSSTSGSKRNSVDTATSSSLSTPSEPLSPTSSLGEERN
T1 sequence (P46976 2-350 partner): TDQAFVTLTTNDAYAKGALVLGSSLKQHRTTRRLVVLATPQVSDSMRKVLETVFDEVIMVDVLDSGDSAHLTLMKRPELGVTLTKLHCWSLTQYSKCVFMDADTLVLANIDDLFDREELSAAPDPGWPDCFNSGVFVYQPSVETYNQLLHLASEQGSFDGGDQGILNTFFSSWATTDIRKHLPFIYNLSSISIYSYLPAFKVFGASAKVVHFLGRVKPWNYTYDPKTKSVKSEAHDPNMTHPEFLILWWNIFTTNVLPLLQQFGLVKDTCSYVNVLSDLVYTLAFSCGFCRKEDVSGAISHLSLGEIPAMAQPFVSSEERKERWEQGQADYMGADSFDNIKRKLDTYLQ
The experiment in a line: PK/LDH coupled enzyme assay with recombinant GYS1 in the presence of G6P. Format: biochemical.

Each structure is given as a SMILES string.

In general, IC50 refers to the concentration needed to halve the response being measured. Turning to `CC(C)c1ccc([C@@H](NC(=O)[C@@H]2C[C@@H](F)CN2C(=O)Cc2cn[nH]n2)c2ccccc2)cc1` [MZ-101], the IC50 was 41 nM.
